Laboratory results from patent publication US20240327458A1, “MACROCYCLIC PEPTIDOMIMETIC PROTEASE INHIBITOR AND USE THEREOF” (TENCENT TECHNOLOGY (SHENZHEN) COMPANY LIMITED, priority 2022, published 2024).
Like-named read-outs stand apart in the source and are kept apart here.

Columns and labels:
[1] = target: M^pro (Severe acute respiratory syndrome coronavirus 2 (2019-nCoV) (SARS-CoV-2), UniProt P0DTD1); details: read-out: M^pro IC50; GST-AVLQ-3Clpro-GP-6His; substrate MCA-AVLQSGFR-Lys(Dnp)-Lys-NH2; Ex320/Em405
[2] = rcm bond, Grubbs 2nd generation catalyst, dichloromethane, 25.0 °C

CC1(C)[C@@H]2[C@H]3C(=O)N[C@H](C#N)CCC(=O)NCCCCCCC[C@H](NC(=O)C(F)(F)F)C(=O)N3C[C@@H]21 [Compound 1, N-((3S, 15S, 18aS, 19aR, 19bS)-3-cyano-19,19-dimethyl-1,6,16-trioxyeicosanylhydro-2H-cyclopropyl[3,4]pyrrole[1,2-a][1,4, 9]triazocyclooctadecyl-15-yl)-2,2,2-trifluoroacetamide]
IC50 [1]: 254 nM

CC1(C)[C@@H]2[C@H]3C(=O)N[C@H](C#N)CCC(=O)NCCC/C=C\CC[C@H](NC(=O)C(F)(F)F)C(=O)N3C[C@@H]21 [Compound 4, N-((3S, 15S, 18aS, 19aR, 19bS, Z)-3-cyano-19,19-dimethyl-1,6,16-trioxo-1,3,4,5,6,7,8,9,10,13,14,15,16,18,18a,19,19a,19b-octadecahydro-2H-cyclopropane[3,4]pyrrole[1,2-a][1,4,9]triazacyclooctadecene-15-yl)-2,2,2-trifluoroacetamide]
IC50 [1]: 411 nM

CC1(C)[C@@H]2[C@H]3C(=O)N[C@H](C#N)CCC(=O)NCCC/C=C/CCC[C@H](NC(=O)C(F)(F)F)C(=O)N3C[C@@H]21 [Compound 8b, N-((3S, 16S, 19aS, 20aR, 20bS, Z/E)-3-cyano-20,20-dimethyl-1,6,17-trioxo-1,2,3,4,5,6,7,8,9,10,13,14,15,16,17,19,19a,20,20a,20b-eicosanylhydrocyclopropyl[3,4]pyrrole[1,2-a][1,4,9]triazacyclonon-16-yl)-2,2,2-trifluoroacetamide]
IC50 [1]: 138 nM

COC(=O)[C@@H]1CCC(=O)NCCC=Cc2cccc(c2)[C@H](NC(=O)OC(C)(C)C)C(=O)N2C[C@H]3[C@@H]([C@H]2C(=O)N1)C3(C)C
ring closure, yield of all isomers ([2]; from C=CCCNC(=O)CC[C@H](NC(=O)[C@@H]1[C@@H]2[C@H](CN1C(=O)[C@@H](NC(=O)OC(C)(C)C)c1cccc(C=C)c1)C2(C)C)C(=O)OC, 3.55 mM, 16.0 h): 20%

COC(=O)[C@@H]1CCC(=O)NCCCC=CCC[C@H](NC(=O)OC(C)(C)C)C(=O)N2C[C@H]3[C@@H]([C@H]2C(=O)N1)C3(C)C
ring closure, yield of all isomers ([2]; from C=CCCCNC(=O)CC[C@H](NC(=O)[C@@H]1[C@@H]2[C@H](CN1C(=O)[C@H](CCC=C)NC(=O)OC(C)(C)C)C2(C)C)C(=O)OC, 1.73 mM, 16.0 h): 86%

COC(=O)[C@@H]1CCC(=O)NCCCC=CC[C@H](NC(=O)OC(C)(C)C)C(=O)N2C[C@@H]3CCC[C@@H]3[C@H]2C(=O)N1
ring closure, yield of all isomers ([2]; from C=CCCCNC(=O)CC[C@H](NC(=O)[C@@H]1[C@H]2CCC[C@H]2CN1C(=O)[C@H](CC=C)NC(=O)OC(C)(C)C)C(=O)OC, 3.75 mM, 16.0 h): 94%

CC1(C)[C@@H]2[C@H]3C(=O)N[C@H](C#N)CCC(=O)NCCCCCC[C@H](NC(=O)C(F)(F)F)C(=O)N3C[C@@H]21 [Compound 7, N-((3S, 14S, 17aS, 18aR, 18bS)-3-cyano-18,18-dimethyl-1,6,15-trioxyeicosanylhydrocyclopropyl[3,4]pyrrole[1,2-a][1,4,9]triazacycloheptanedioic acid-14-yl)-2,2,2-trifluoroacetamide]
IC50 [1]: 16 nM

CC1(C)[C@@H]2[C@H]3C(=O)N[C@H](C#N)CCC(=O)NCCCCCCCC[C@H](NC(=O)C(F)(F)F)C(=O)N3C[C@@H]21 [Compound 6, N-((3S, 16S, 19aS, 20aR, 20bS)-3-cyano-20,20-dimethyl-1,6,17-trioxydocosanylhydrocyclopropa[3,4]pyrrole[1,2-a][1,4,9]triazacyclononanedioic acid-16-yl)-2,2,2-trifluoroacetamide]
IC50 [1]: 379 nM

COC(=O)[C@@H]1CCC(=O)N(C)CCCC=CCC[C@H](NC(=O)OC(C)(C)C)C(=O)N2C[C@H]3[C@@H]([C@H]2C(=O)N1)C3(C)C
ring closure, yield of all isomers ([2]; from C=CCCCN(C)C(=O)CC[C@H](NC(=O)[C@@H]1[C@@H]2[C@H](CN1C(=O)[C@H](CCC=C)NC(=O)OC(C)(C)C)C2(C)C)C(=O)OC, 5.1 mM, 16.0 h): 94%

COC(=O)[C@@H]1CCC(=O)NCCCC=CCCC[C@H](NC(=O)OC(C)(C)C)C(=O)N2C[C@H]3[C@@H]([C@H]2C(=O)N1)C3(C)C
ring closure, yield of all isomers ([2]; from C=CCCCNC(=O)CC[C@H](NC(=O)[C@@H]1[C@@H]2[C@H](CN1C(=O)[C@H](CCCC=C)NC(=O)OC(C)(C)C)C2(C)C)C(=O)OC, 4.53 mM, 2.0 h): 60%

COC(=O)[C@@H]1CCC(=O)NCCCC=CC[C@H](NC(=O)OC(C)(C)C)C(=O)N2C[C@H]3[C@@H]([C@H]2C(=O)N1)C3(C)C
ring closure, yield of all isomers ([2]; from C=CCCCNC(=O)CC[C@H](NC(=O)[C@@H]1[C@@H]2[C@H](CN1C(=O)[C@H](CC=C)NC(=O)OC(C)(C)C)C2(C)C)C(=O)OC, 3.53 mM, 16.0 h): 100%
